These results are taken from patent US20230339949A1, “HETEROCYCLIC SUBSTITUTED FUSED y-CARBOLINE DERIVATIVE, PREPARATION METHOD THEREFOR, INTERMEDIATE THEREOF AND USE THEREOF” (SHUJING BIOPHARMA CO., LTD, priority 2020, published 2023).

Each structure is given as a SMILES string. Where two headings read alike, the source gives them in different places.

The target in one test is T1, D2S receptor (Homo sapiens, UniProt P14416).
T1 construct: expressed in transfected cells
Nature of the test: Functional activity test on D2S receptor, cAMP detection (Gi antagonist test). Type of test: cell-based. The conditions noted are these: cultured HEK293/D2S cells, forskolin + dopamine EC90. The source says: (§1) The antagonistic effects of the compounds of the present disclosure on D2L and D2S receptors were detected by cyclic adenosine monophosphate (cAMP) detection method at cell-level.
(§2) • (1) Test compound: compounds of the embodiment of the present disclosure, self-made. • (2) Control compound: dopamine hydrochloride (Sigma, H8502), (+)-Butaclamol hydrochloride (Sigma, D033). • (3) Stable cell line:
(§3) • (1) Preparation of test compounds: the compounds of the embodiments of the present disclosure were respectively dissolved in DMSO to prepare 10 mM mother liquor, and the mother liquor was stored in the nitrogen cabinet for later use. • (2) Preparation of control compound: the control compound was dissolved in DMSO to prepare 10 mM mother liquor, and the mother liquor was repackaged and stored in the refrigerator at −80° C. for later use. • (3) IBMX was dissolved in DMSO to prepare 0.5 M stock solution and the stock solution was cryopreserved at −80° C. • (4) Forskolin was dissolved in DMSO to prepare 1 mM stock solution and the stock solution was cryopreserved at −80° C. for later use. • (5) Experimental buffer: 5× stimulation buffer was diluted to 1× with ddH2O and IBMX with a final concentration of 0.5 mM was added thereto, and the solution was mixed well for later use.
(§4) • (1) Preparation of compounds: the test compounds and positive control compound (+)-Butaclamol hydrochloride were diluted gradient using Bravo in the compound plate (Greiner-781280), and the initial concentration of working solution was 20 μM, and the working solution was diluted at 4-fold for 10 concentrations and centrifuged at 1000 rpm for 1 minute for later use. • (2) Cryopreserved D2L cells: cells was taken out from the liquid nitrogen tank and thaw in a water bath at 37° C., and the cell suspension was transferred to a centrifuge tube containing HBSS buffer, and centrifuged at 750 rpm for 5 minutes.
(§5) Cultured D2S cells: after absorbing the culture medium, the cells were washed with 3 mL PBS, sucked out, digested with 0.05% Trypsin for 3 min, terminated with equal volume of culture medium, transferred to centrifuge tube, and centrifuged at 750 rpm for 5 minutes. After absorbing the liquid, the centrifuge tube was added with a buffer solution containing HBSS and re-suspend, and centrifuged at 750 rpm for 5 minutes. • (3) The supernatant was discarded, and the precipitate was re-suspended with proper amount of experimental buffer, and 20 μL was taken for cell counting. • (4) Appropriate amount of cell suspension was removed, and the cell suspension was diluted to 2×10^5 cells/mL with experimental buffer, and the cell plate (PerkinElmer-6008280) was added with 5 μL/well cell suspension, and centrifuged at 1000 rpm for 1 minute. • (5) 5 μL/well was transferred to the cell plate with Bravo, and the cell plate was centrifuged at 1000 rpm for 1 minute, then the cell plate was closed and incubated at room temperature for 15 minutes. • (6) Forskolin was transferred to the cell plate with Tecan-D300e, and Dopamine hydrochloride with a final concentration of EC90 was transferred to the cell plate. • (7) The cell plate was centrifuged at 1000 rpm for 1 minute, then sealed and incubated at room temperature for 45 minutes. • (8) Standard curve: cAMP with the stock solution concentration of 2848 nM was diluted 4-fold continuously at 8 points according to the initial maximum concentration of 712 nM, and 10 μL/well was taken out to add to the cell plate. • (9) 10 μL/well of detection solution containing cAMP-d2 and Anti-cAMP-Cryptate (diluted with pyrolysis buffer at 1:20) was added to the cell plate, and the cell plate was centrifuged at 1000 rpm for 1 minute, and incubated at room temperature without light for 1 hour. • (10) Detection: the cell plate was centrifuged at 1000 rpm for 1 minute, and the plate was read with Envision (excitation light 340 nm, emission light 620 nm and 665 nm). […]

The next test concerns the target T2, D2L receptor (Homo sapiens, UniProt P14416).
T2 construct: expressed in transfected cells
Nature of the test: Functional activity test on D2L receptor, cAMP detection (Gi antagonist test). The format is cell-based. The note with it: cryopreserved CHO-K1/D2L/Gα15 cells, forskolin + dopamine EC90.
Excerpt: as §1, §2, §3, §4, §5

Another test has as its target T3, 5-HT2A receptor (Homo sapiens, UniProt P28223).
T3 construct: expressed in transfected cells
Nature of the test: Functional detection experiment of 5-HT2A receptor (cultured cells), calcium influx assay. The format is cell-based. The source says:
The antagonistic effect of the compound of the present disclosure on the 5-HT2A receptor was detected by a calcium influx assay at the cellular level.
• (1) Test compounds: compounds of the embodiments of the present disclosure, self-made. • (2) Control compound: serotonin hydrochloride 5-hydroxytryptamine (Sigma, H9523), Ketanserin (Targetmol, T1066). • (3) Stable cell line:
• (1) Preparation of test compounds: the compounds of the embodiments of the present disclosure were respectively dissolved in DMSO to prepare 10 mM mother liquor, and the mother liquor was stored in the nitrogen cabinet for later use. • (2) Preparation of control compound: the control compound was dissolved in DMSO to prepare 10 mM mother liquor, and the mother liquor was repackaged and stored in the refrigerator at -80° C. for later use. • (3) Preparation of 250 mM probenecid solution: 1 mL experimental buffer was added into a tube containing 77 mg powder, and the powder was dissolved by vortex oscillation. • (4) Preparation of 2× fluorescent probe solution: a bottle of fluorescent probe dry powder was taken out to balance to room temperature, and 10 mL of experimental buffer solution and 200 μL of 250 mM probenecid solution were added thereto, and the mixture was scrolled and let stand for 5 minutes to ensure complete dissolution. • (5) Experimental buffer HBSS: HBSS and HEPES were mixed evenly in a ratio of 50:1, stored in a refrigerator at 4° C., and heated at 37° C. when used.
• (1) Cells were taken out from the liquid nitrogen tank and melted in a water bath at 37° C. The surface of the cryopreservation tube was wiped with 75% alcohol and put in the biosafety cabinet. • (2) The cell suspension was transferred to a 15 mL centrifuge tube with 4 mL preheated plating medium, and the tube was centrifuged at 1000 rpm for 5 minutes. • (3) The supernatant was discarded, and 10 mL of plating medium was added and blown gently, and the mixture was transferred to a culture dish for growth. After the cells had adhered to the wall for 24 hours, they were replaced with growth medium for continuous culture.
• (1) The logarithmic growth cells was taken and the cells grew to about 85%-90%. The cells were performed the following operations: cell cleaning, digestion, termination, then transferred to a 15 mL centrifuge tube, and the tube was centrifuged at room temperature at 1000 rpm for 5 minutes. • (2) The supernatant was discarded, and a certain plating medium was added and blown gently. 20 μL of cell suspension was taken out and counted. • (3) Cells were diluted to 1×10^6 cells/mL and 20 μL of cell suspension was added to each well of the cell plate (Greiner-781946), so that the density of each well is 2×10^4 cells/well. • (4) The cell plate was incubated in an incubator with 5% CO2 at 37° C. for 16-24 hours. […]

The test system of test [1] is DOI-induced head-shaking behavior. Nature of the test: DOI-induced head-shaking behavior in mice. Type of test: in vivo, ICR mice. The note with it: Mus musculus, read-out: ED50 (half effective dose). The protocol:
The efficacy of the compounds of the present disclosure was evaluated by the mice model of head-shaking behavior induced by intraperitoneal injection of (±) DOI (a hallucinogenic agent usually used to replicate anti-schizophrenic animal model).
(§6) Experimental animals: ICR mice, male, 8 mice/group, Spelford (Beijing) Biotechnology Co., Ltd.
Preparation of drug: the test compounds were taken, and solvent was added, and ultrasonication was performed.
Administration route and method: oral gavage administration, 10 mL/kg (body weight).
(§7) Administration frequency and duration: single dose.
Animals were stratified by body weight and then randomly divided into blank group, model group, and administration groups, and detailed information of administration is shown in the following table.
Mice were stratified according to body weight and then randomly divided into model group, blank group and each administration group. One hour after the animals were gavage administration of the solvent or drugs, they were placed in a beaker (13 cm in diameter, 19 cm in height) with fresh padding, and the model drug DOI was injected intraperitoneally at a dose of 1 mg/kg. The times of head-shaking were recorded within 0-20 minutes after DOI was injected intraperitoneally.
Head-shaking behavior is defined as rapid rotational twitch of mouse's head or wet dog-like shaking, which should be different from normal hair grooming or inquiry behavior.
(§8) The experimental data were expressed as x±SD, and SPSS statistical software was used to test the homogeneity of variance. If the variance was homogeneous, single factor analysis of variance was performed, and Dunnett t test is used for pairwise comparison. The ED50 was calculated by nonlinear fitting with GraphPad Primis5 software.

The test system of test [2] is MK-801 induced hyperactivity behavior. In words: MK-801 induced hyperactivity behavior in mice. The format is in vivo, ICR mice. The conditions noted are these: for ED50: Mus musculus, read-out: ED50 (half effective dose). On the procedure: The efficacy of the compounds of the present disclosure was evaluated by high activity model of mice induced by intraperitoneal injection of MK-801.
as §6
Preparation of drug: the test compounds were taken, and pure water was added, and ultrasonication was performed.
Administration route and method: gavage administration, 10 mL/kg (body weight).
as §7
Animals were stratified by body weight and then randomly divided into blank group, model group, and administration group, and detailed information of administration is shown in the following table.
Mice were stratified according to body weight and then randomly divided into model group, blank group and each administration group. One hour after the gavage administration of solvent or drug, 0.3 mg/kg MK-801 was injected intraperitoneally (the blank group was injected with the same volume of physiological saline), and then the mice were put into an independent activity box (a black polyethylene box with the specification of 29 cm×29 cm×30 cm) for video recording for 60 minutes, and video analysis was performed at the end of the recording to evaluate the activity of the mice.
as §8

Setting [3] is: cultured CHO-K1/5-HT2A cells, calcium influx (FLIPR), antagonist mode vs agonist EC80, read-out: 5-HT2A IC50.
Where [4] appears, read: male ICR mice, single gavage dose 1 h before MK-801 0.3 mg/kg i.p., activity recorded 60 min.

T1 sequence (P14416 1-414 isoform P14416-2): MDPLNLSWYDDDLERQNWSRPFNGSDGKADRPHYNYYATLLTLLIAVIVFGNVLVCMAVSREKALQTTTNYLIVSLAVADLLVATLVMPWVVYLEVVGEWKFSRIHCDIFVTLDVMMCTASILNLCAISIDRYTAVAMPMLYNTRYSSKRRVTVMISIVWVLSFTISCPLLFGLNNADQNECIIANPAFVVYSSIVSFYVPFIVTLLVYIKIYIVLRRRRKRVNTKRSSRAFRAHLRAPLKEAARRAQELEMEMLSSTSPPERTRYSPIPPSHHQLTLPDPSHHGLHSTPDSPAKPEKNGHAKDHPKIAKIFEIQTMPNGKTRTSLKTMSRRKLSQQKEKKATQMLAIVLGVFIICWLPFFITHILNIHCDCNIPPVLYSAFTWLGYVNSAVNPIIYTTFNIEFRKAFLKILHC
T3 sequence (P28223 whole entry): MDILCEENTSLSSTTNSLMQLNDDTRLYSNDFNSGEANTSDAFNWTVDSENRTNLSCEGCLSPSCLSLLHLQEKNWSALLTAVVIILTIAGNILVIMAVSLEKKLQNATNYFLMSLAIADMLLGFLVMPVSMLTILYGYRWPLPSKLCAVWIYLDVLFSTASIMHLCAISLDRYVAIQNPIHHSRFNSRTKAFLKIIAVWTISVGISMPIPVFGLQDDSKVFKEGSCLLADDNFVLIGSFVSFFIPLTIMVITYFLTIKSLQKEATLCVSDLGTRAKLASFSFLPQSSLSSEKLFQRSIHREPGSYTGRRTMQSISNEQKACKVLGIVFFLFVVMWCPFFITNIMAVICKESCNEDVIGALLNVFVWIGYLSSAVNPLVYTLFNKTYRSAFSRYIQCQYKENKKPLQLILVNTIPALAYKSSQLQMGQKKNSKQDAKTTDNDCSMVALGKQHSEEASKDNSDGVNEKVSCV
T2 sequence (P14416 whole entry): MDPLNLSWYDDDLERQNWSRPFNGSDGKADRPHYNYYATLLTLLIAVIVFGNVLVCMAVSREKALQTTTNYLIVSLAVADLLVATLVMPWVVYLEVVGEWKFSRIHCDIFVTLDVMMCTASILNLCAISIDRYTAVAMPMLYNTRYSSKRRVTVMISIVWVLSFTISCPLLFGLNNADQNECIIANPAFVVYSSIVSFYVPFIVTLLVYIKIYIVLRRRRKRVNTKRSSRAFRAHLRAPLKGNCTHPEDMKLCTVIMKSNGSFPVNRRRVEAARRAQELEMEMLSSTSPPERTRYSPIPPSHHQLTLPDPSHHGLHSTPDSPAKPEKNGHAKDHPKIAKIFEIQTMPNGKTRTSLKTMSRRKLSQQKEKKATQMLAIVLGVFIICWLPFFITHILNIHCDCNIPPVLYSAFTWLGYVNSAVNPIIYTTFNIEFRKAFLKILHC

`CN1C(=O)CN2c3c1cccc3[C@@]1(C)CN(CCCC(=O)c3ccc(F)cc3)CC[C@@H]21` [Embodiment 1-B, (6bS,10aR)-8-(4-(4-fluorophenyl)-4-oxobutyl)-3,6b-dimethyl-6b,7,8,9,10,10a-hexahydro-1H-pyrido[3′,4′:4,5]pyrrolo [1,2,3-de]quinoxalin-2(3H)-one]: the values for the IC50 on D2S receptor, at D2L receptor and at 5-HT2A receptor (setting [3]) were 63.1 nM, 15.5 nM and 108 nM, respectively.
Turning to `CCN1C(=O)CN2c3c1cccc3C1(C)CN(CCCC(=O)c3ccc(F)cc3)CCC21` (centres unmarked) [Embodiment 3, 3-ethyl-8-(4-(4-fluorophenyl)-4-oxobutyl)-6b-methyl-6b,7,8,9,10,10a-hexahydro-1H-pyrido[3′,4′:4,5]pyrrolo[1,2,3-de]quinoxalin-2(3H)-one], the IC50 on D2S receptor turned out to be 207 nM; at D2L receptor it was 51.4 nM. The ED50 in test [1] was 0.21 mg/kg.
Regarding `CN1CCN2c3c1cccc3C1(C)CN(CCCC(=O)c3ccc(F)cc3)CCC21` (centres unmarked) [Embodiment 7, 4-(3,6b-dimethyl-2,3,6b,9,10,10a-hexahydro-1H-pyrido[3′,4′:4,5]pyrrolo[1,2,3-de]quinoxalin-8(7H)-yl)-1-(4-fluorophenyl)butan-1-one], the half-maximal inhibitory concentration (IC50) at 5-HT2A receptor was 3.5 nM. In test [2], the median effective dose (ED50) was 0.09 mg/kg. Moreover, the “MED (lowest effective dose)” value in test [2] (setting [4]) amounted to 0.1 mg/kg.
For `CN1C(=O)CN2c3c(cccc31)[C@@H]1CN(CCCC(=O)c3ccc(F)cc3)CC[C@@H]12` [Comparative embodiment 1-A, reference compound], the IC50 on D2S receptor came to 264 nM; at D2L receptor it was 88.8 nM; on 5-HT2A receptor (setting [3]), 9.11 nM.
Turning to `Cn1c(=O)c(=O)n2c3c(cccc31)C1(C)CN(CCCC(=O)c3ccc(F)cc3)CCC21` (centres unmarked) [Embodiment 5, 8-(4-(4-fluorophenyl)-4-oxobutyl)-3,6b-dimethyl-6b,7,8,9,10,10a-hexahydro-1H-pyrido[3′,4′:4,5]pyrrolo[1,2,3-de]quinoxaline-1,2(3H)-dione], the 50% inhibitory concentration (IC50) on D2S receptor came to 93.4 nM; at D2L receptor it was 13.1 nM.
`CN1C(=O)CN2c3c(cccc31)C1CN(CCCC(=O)c3ccc(F)cc3)CCC12` (centres unmarked) [Comparative embodiment 1, 8-(4-(4-fluorophenyl)-4-oxobutyl)-3-methyl-6b,7,8,9,10,10a-hexahydro-1H-pyrido [3′,4′:4,5]pyrrolo[1,2,3-de]quinoxalin-2(3H)-one, reference compound]: the IC50 at D2S receptor was 364 nM; on D2L receptor, 200 nM; on 5-HT2A receptor (setting [3]), 44.4 nM. Further, in test [2] (setting [4]), the ED50 stood at 1.28 mg/kg. Besides, in test [2] (setting [4]), the “MED (lowest effective dose)” value is 1 mg/kg.
Regarding `CN1CCN2c3c(cccc31)C1CN(CCCC(=O)c3ccc(F)cc3)CCC12` (centres unmarked) [Comparative embodiment 2, 1-(4-fluorophenyl)-4-(3-methyl-2,3,6b,9,10,10a-hexahydro-1H-pyrido[3′,4′:4,5]pyrrolo[1,2,3-de]quinoxalin-8(7H)-yl)butan-1-one, reference compound], the IC50 at D2S receptor stood at 622 nM; on D2L receptor, 35.8 nM.
On to `CN1C(=O)C(C)(C)N2c3c1cccc3C1(C)CN(CCCC(=O)c3ccc(F)cc3)CCC21` (centres unmarked) [Embodiment 4, 8-(4-(4-fluorophenyl)-4-oxobutyl)-1,1,3,6b-tetramethyl-6b,7,8,9,10,10a-hexahydro-1H-pyrido [3′,4′:4,5]pyrrolo[1,2,3-de]quinoxalin-2(3H)-one], for which the ED50 in test [1] turned out to be 0.42 mg/kg. In addition, on 5-HT2A receptor, the concentration for half-maximal inhibition (IC50) was found to be 19.7 nM.

Broadly, the IC50 is the concentration at which inhibition is half-maximal. By ED50 is commonly meant the midpoint of the dose-response relation.
